Test results from ChEMBL document CHEMBL3886762, “Substituted pyridizinone derivatives as PDE10 inhibitors” (2016).

biological target: cAMP and cAMP-inhibited cGMP 3',5'-cyclic phosphodiesterase 10A (Homo sapiens, UniProt Q9Y233); assay: Fluorescence Polarization Assay: The fluorescence polarization assay for cyclic nucleotide phosphodiesterases was performed using an IMAP® FP kit supplied by Molecular Devices, Sunnyvale, Calif. (product #R8139). IMAP® technology has been applied previously to phosphodiesterase assays (Huang, W., et al., J. Biomol Screen, 2002, 7: 215).
Sequence (Q9Y233 whole entry): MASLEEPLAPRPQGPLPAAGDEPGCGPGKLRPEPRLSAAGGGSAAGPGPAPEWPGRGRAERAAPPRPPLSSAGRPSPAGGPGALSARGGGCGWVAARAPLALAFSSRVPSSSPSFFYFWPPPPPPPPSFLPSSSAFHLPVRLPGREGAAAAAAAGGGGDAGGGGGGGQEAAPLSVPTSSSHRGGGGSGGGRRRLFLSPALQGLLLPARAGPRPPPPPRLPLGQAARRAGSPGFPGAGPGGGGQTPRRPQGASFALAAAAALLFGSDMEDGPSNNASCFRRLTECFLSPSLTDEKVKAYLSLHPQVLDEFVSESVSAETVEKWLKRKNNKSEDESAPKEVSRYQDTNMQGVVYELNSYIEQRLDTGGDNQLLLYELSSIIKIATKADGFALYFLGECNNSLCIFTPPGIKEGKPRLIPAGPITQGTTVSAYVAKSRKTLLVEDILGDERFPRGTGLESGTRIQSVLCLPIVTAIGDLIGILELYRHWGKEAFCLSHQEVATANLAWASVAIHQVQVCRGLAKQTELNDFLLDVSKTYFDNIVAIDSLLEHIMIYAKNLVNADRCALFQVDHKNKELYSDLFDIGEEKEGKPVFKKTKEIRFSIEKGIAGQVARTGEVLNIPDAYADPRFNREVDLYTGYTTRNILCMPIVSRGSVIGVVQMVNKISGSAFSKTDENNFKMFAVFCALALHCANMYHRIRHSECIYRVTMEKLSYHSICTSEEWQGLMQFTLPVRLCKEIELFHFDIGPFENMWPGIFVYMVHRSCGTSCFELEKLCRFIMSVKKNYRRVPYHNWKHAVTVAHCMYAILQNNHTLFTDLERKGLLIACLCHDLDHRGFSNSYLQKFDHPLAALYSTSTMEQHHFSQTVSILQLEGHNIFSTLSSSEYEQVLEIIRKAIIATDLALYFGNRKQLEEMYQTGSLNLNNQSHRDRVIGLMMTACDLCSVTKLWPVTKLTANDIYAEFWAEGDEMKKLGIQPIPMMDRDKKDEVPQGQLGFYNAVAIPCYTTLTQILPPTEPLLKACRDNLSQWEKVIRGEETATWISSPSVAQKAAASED

| Structure (SMILES) | Ki |
| --- | --- |
| Cc1nnc(CNc2cc(OC[C@H]3C[C@@H]3c3ccc4c(n3)CCC4)nn(C)c2=O)s1 | 0.002 nM |
| Cc1nnc(CNc2cc(OC[C@H]3C[C@@H]3c3ccc4ccccc4n3)nn(C)c2=O)s1 | 0.001 nM |
| Cc1nnc(CNc2cc(OC[C@H]3C[C@@H]3c3nn(C)c4ccccc34)nn(C)c2=O)s1 | 0.905 nM |
| Cc1nnc(CNc2cc(OC[C@H]3C[C@@H]3c3ccn(C)n3)nn(C)c2=O)s1 | 0.1 nM |
| Cc1ccc(CNc2cc(OC[C@H]3C[C@@H]3c3ccn(C)n3)nn(C)c2=O)nc1 | 0.473 nM |
| COc1ccc([C@H]2C[C@@H]2COc2cc(NCc3cnn(C(F)F)c3)c(=O)n(C)n2)nc1 | 0.144 nM |
